Test results from patent US20260216207A1, “7-CARBONYLSTAUROSPORINE DERIVATIVE, PREPARATION METHOD THEREFOR, AND USE THEREOF” (HANGZHOU KEXING BIOCHEM. CO., LTD., priority 2023, published 2026).
Read-outs that look alike come from different tables or passages of the source.

How the values were obtained:
Format in all cases: biochemical
PIM-1 kinase = PIM-1 kinase (Homo sapiens, UniProt P11309); test: HTRF KinEASE kinase assay, PIM-1 inhibitory activity
Source text: Inhibitory activities against PIM-1, TRKA, TRKB, FLT3, PKCδ, PKCε, PKCη, PAK4, PLK1, ROCK2, and IKKβ kinases were all determined using an HTRF®KinEASE™ kinase assay kit based on a time-resolved fluorescence technology. 7-carbonylstaurosporine (7OSTA) and TP-3654 were used as positive controls, and 3 duplicate wells were set in parallel. Specific operation steps are as follows. • (1) A kinase buffer was formulated and then used to formulate compounds to be tested, a positive drug, a substrate, kinases, and adenosine triphosphate (ATP). • (2) 2 μL of the substrate, 2 μL of the kinases (the kinases were not added in a negative control group), 4 μL of the compounds to be tested or the positive drug (4 μL of a buffer was added in a positive control group, and 6 μL of a buffer was added in the negative control group), and 2 μL of the ATP were sequentially added into each well of a 384-well microplate, and the microplate was sealed with a membrane and then centrifuged for uniform mixing. • (3) According to different types of the kinases, incubation was performed in an incubator at 37° C. for a specific time. • (4) A detection solution was formulated using XL-665, an antibody, and a detection buffer, 10 µL of the detection solution was added into each well, the microplate was sealed with a membrane and then centrifuged for uniform mixing, and standing was performed at room temperature for 1 hour. • (5) Fluorescence value intensities F1 and F2 at wavelengths of 620 nm and 665 nm were measured using a multifunctional microplate tester, respectively. A signal ratio was calculated as F2/F1×10000, and then an IC50 value was calculated using Graphpad Prism 8 software.

IKKβ = target: T1, IKKβ (Homo sapiens, UniProt O14920); test: HTRF KinEASE kinase assay, IKKβ (kinase selectivity)
T1 sequence (O14920 1-756): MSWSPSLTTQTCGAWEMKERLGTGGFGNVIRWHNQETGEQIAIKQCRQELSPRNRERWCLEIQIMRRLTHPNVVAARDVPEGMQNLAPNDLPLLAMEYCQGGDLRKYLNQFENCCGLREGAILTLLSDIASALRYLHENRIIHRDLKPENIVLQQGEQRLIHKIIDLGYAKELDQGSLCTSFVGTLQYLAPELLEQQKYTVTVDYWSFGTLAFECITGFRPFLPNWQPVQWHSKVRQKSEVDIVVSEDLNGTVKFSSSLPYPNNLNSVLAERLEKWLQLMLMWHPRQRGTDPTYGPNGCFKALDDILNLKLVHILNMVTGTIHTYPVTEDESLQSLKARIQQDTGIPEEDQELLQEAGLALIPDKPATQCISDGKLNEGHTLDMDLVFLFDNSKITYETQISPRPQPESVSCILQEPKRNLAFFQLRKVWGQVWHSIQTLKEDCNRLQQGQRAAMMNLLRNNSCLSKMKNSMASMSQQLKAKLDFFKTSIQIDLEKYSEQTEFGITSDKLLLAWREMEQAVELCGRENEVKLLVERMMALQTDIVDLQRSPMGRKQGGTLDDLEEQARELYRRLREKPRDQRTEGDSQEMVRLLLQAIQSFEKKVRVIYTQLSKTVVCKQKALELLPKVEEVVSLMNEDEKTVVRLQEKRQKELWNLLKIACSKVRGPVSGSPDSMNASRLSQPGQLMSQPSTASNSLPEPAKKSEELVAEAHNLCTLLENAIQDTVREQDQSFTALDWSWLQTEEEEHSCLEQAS
Protocol: (§1) Inhibitory activities against PIM-1, TRKA, TRKB, FLT3, PKCδ, PKCε, PKCη, PAK4, PLK1, ROCK2, and IKKβ kinases were all determined using an HTRF®KinEASE™ kinase assay kit based on a time-resolved fluorescence technology. 7-carbonylstaurosporine (7OSTA) and TP-3654 were used as positive controls, and 3 duplicate wells were set in parallel. […] A signal ratio was calculated as F2/F1×10000, and then an IC50 value was calculated using Graphpad Prism 8 software.

FLT3 = target: T2, FLT3 (Homo sapiens, UniProt P36888); test: HTRF KinEASE kinase assay, FLT3 (kinase selectivity)
T2 sequence (P36888 27-993): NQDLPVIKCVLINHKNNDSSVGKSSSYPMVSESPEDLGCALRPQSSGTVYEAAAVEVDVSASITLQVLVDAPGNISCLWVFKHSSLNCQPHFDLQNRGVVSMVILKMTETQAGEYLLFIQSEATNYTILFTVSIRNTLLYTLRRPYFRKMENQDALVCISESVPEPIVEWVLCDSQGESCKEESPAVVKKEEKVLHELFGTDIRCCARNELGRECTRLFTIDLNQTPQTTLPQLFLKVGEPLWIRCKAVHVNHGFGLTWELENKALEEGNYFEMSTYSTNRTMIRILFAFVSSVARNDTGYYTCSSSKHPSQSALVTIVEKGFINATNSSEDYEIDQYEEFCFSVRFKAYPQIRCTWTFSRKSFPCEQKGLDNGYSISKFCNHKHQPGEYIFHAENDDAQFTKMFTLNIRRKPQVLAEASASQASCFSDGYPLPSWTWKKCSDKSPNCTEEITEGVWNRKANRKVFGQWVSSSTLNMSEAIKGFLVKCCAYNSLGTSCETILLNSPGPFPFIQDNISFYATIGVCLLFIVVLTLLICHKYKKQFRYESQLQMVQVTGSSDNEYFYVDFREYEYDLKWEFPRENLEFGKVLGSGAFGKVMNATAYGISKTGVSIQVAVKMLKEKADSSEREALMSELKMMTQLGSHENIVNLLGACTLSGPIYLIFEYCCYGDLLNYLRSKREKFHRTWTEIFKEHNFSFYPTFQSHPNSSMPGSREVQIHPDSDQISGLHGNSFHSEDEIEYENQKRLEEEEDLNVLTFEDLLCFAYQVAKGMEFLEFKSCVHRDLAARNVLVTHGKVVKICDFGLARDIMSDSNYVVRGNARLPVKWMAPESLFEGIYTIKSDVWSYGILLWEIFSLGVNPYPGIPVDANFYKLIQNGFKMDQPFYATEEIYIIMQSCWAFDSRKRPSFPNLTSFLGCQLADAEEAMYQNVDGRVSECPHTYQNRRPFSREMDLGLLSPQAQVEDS
Protocol: as §1

PKCε = target: T3, PKCε (Homo sapiens, UniProt Q02156); test: HTRF KinEASE kinase assay, PKCε (kinase selectivity)
T3 sequence (Q02156 1-737): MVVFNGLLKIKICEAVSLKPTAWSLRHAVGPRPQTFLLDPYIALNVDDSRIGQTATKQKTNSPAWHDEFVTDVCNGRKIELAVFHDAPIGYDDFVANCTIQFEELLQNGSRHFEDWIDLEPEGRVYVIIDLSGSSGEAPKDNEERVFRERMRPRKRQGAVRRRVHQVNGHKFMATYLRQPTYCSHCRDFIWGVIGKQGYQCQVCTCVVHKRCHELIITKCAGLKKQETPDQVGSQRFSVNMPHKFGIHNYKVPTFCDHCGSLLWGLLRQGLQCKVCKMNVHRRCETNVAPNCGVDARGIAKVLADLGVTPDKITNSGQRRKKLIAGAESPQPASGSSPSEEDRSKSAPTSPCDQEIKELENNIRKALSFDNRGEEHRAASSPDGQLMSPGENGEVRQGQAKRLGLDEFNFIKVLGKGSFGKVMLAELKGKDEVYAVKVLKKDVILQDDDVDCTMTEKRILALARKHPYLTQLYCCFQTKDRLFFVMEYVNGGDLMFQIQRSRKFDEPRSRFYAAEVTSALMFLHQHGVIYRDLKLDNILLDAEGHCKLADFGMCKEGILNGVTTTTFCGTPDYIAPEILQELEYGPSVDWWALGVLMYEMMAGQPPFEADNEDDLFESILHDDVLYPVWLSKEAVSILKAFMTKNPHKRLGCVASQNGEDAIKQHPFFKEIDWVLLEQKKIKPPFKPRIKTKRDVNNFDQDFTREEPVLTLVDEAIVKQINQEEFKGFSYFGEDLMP
Protocol: as §1

PKCη = PKCη (Homo sapiens, UniProt P24723); test: HTRF KinEASE kinase assay, PKCη (kinase selectivity)
Protocol: as §1

PAK4 = PAK4 (Homo sapiens, UniProt O96013); test: HTRF KinEASE kinase assay, PAK4 (kinase selectivity)
Protocol: as §1

TRKB = TRKB (Homo sapiens, UniProt Q16620); test: HTRF KinEASE kinase assay, TRKB (kinase selectivity)
Protocol: as §1

TRKA = TRKA (Homo sapiens, UniProt P04629); test: HTRF KinEASE kinase assay, TRKA (kinase selectivity)
Protocol: as §1

PLK1 = PLK1 (Homo sapiens, UniProt P53350); test: HTRF KinEASE kinase assay, PLK1 (kinase selectivity)
Protocol: as §1

PKCδ = PKCδ (Homo sapiens, UniProt Q05655); test: HTRF KinEASE kinase assay, PKCδ (kinase selectivity)
Protocol: as §1

ROCK2 = ROCK2 (Homo sapiens, UniProt O75116); test: HTRF KinEASE kinase assay, ROCK2 (kinase selectivity)
Protocol: as §1

[1] = HTRF KinEASE kit, 3 duplicate wells, read-out: PIM-1 kinase inhibitory activity (IC50)

Sequence of PIM-1 kinase (P11309 whole entry): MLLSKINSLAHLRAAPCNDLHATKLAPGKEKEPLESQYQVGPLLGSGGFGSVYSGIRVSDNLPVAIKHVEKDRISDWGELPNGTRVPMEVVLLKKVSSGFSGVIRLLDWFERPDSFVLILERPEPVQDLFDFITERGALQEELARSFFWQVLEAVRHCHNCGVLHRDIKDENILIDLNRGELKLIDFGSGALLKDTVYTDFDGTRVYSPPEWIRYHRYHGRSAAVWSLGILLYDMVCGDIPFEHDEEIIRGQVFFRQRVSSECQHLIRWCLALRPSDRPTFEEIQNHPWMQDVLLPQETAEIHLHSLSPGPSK
Sequence of PKCδ (Q05655 whole entry): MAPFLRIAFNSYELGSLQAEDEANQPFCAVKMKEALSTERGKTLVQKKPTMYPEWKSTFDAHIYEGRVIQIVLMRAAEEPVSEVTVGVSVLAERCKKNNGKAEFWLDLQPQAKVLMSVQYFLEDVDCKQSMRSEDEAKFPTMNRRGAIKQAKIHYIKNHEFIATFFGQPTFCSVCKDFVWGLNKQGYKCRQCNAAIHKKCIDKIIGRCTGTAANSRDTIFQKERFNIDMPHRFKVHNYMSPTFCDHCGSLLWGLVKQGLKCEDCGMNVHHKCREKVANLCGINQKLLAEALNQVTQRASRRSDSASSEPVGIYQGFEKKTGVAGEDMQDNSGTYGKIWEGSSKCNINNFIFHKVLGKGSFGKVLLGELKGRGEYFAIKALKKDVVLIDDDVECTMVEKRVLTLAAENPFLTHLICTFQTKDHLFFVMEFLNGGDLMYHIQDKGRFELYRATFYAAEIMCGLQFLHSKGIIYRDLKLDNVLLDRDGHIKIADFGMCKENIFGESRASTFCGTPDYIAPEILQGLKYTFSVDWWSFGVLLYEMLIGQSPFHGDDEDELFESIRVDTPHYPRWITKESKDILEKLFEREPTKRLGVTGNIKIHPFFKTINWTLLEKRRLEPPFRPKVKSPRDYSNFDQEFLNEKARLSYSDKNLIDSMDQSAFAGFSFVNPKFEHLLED
Sequence of PAK4 (O96013 whole entry, species assumed): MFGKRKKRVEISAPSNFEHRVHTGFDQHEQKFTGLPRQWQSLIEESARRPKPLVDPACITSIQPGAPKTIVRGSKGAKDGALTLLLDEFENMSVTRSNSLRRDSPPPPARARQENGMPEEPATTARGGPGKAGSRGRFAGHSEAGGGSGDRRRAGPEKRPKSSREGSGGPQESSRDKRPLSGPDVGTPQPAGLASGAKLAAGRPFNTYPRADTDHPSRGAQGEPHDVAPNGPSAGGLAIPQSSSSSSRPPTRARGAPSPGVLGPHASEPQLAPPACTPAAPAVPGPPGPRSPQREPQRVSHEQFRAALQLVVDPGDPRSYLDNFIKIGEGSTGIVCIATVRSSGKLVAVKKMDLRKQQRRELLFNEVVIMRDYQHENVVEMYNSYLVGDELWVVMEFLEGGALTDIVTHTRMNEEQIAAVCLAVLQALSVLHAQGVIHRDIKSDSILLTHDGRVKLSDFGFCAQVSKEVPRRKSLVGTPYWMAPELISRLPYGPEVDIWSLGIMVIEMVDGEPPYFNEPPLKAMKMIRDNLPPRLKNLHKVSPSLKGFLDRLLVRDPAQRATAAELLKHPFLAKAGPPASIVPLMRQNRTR
Sequence of PLK1 (P53350 whole entry, species assumed): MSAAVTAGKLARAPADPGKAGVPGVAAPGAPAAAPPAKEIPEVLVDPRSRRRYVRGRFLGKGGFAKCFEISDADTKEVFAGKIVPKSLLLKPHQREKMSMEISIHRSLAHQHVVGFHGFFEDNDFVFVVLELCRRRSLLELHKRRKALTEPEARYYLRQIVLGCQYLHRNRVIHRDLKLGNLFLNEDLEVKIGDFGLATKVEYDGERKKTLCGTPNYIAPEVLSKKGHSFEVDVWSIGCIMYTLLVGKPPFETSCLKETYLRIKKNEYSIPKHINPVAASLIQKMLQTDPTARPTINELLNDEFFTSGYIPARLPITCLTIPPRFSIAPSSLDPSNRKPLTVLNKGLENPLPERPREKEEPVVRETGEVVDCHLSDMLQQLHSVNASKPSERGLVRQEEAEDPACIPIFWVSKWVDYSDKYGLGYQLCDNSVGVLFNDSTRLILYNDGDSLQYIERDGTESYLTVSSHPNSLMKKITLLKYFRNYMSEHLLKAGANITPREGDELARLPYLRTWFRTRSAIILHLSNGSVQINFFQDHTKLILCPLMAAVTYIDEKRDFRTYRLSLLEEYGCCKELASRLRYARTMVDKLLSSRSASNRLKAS
Sequence of TRKA (P04629 33-796, species assumed): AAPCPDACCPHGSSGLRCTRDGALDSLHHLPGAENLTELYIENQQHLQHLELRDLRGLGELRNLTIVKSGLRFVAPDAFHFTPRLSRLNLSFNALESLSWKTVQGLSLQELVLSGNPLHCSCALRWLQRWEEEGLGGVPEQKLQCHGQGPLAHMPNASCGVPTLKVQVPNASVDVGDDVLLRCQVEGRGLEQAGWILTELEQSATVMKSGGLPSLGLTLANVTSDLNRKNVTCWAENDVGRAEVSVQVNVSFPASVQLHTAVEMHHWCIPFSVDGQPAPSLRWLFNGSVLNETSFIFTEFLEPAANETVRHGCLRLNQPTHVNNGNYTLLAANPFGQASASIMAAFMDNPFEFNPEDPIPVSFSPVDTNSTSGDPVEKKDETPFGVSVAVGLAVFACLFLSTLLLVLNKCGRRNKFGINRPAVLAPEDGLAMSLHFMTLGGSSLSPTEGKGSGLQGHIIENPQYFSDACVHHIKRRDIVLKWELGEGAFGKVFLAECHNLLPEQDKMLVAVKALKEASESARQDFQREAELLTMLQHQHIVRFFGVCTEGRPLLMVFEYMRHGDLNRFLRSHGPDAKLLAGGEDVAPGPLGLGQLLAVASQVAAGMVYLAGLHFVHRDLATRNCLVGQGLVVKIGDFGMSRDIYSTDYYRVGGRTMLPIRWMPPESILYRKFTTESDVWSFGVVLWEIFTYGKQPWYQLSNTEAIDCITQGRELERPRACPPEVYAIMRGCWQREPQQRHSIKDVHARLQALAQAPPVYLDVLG
Sequence of PKCη (P24723 whole entry): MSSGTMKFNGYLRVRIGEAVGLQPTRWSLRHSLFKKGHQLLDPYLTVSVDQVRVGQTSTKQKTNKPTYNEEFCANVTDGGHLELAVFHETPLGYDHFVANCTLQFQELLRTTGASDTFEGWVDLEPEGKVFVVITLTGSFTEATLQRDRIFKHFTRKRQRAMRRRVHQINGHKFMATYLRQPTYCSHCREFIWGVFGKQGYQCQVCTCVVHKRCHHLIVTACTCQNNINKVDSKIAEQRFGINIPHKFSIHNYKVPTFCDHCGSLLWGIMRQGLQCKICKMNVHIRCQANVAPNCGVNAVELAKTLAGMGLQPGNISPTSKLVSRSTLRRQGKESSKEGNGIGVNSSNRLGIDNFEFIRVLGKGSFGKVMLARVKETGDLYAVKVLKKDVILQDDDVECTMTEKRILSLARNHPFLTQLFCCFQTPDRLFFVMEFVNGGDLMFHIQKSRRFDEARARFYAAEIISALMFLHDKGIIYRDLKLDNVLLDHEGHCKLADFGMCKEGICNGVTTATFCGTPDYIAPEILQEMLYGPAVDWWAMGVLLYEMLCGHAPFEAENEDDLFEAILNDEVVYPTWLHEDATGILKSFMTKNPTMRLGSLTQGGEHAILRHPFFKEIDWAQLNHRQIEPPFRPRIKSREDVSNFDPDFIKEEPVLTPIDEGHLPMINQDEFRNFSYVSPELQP
Sequence of ROCK2 (O75116 whole entry, species assumed): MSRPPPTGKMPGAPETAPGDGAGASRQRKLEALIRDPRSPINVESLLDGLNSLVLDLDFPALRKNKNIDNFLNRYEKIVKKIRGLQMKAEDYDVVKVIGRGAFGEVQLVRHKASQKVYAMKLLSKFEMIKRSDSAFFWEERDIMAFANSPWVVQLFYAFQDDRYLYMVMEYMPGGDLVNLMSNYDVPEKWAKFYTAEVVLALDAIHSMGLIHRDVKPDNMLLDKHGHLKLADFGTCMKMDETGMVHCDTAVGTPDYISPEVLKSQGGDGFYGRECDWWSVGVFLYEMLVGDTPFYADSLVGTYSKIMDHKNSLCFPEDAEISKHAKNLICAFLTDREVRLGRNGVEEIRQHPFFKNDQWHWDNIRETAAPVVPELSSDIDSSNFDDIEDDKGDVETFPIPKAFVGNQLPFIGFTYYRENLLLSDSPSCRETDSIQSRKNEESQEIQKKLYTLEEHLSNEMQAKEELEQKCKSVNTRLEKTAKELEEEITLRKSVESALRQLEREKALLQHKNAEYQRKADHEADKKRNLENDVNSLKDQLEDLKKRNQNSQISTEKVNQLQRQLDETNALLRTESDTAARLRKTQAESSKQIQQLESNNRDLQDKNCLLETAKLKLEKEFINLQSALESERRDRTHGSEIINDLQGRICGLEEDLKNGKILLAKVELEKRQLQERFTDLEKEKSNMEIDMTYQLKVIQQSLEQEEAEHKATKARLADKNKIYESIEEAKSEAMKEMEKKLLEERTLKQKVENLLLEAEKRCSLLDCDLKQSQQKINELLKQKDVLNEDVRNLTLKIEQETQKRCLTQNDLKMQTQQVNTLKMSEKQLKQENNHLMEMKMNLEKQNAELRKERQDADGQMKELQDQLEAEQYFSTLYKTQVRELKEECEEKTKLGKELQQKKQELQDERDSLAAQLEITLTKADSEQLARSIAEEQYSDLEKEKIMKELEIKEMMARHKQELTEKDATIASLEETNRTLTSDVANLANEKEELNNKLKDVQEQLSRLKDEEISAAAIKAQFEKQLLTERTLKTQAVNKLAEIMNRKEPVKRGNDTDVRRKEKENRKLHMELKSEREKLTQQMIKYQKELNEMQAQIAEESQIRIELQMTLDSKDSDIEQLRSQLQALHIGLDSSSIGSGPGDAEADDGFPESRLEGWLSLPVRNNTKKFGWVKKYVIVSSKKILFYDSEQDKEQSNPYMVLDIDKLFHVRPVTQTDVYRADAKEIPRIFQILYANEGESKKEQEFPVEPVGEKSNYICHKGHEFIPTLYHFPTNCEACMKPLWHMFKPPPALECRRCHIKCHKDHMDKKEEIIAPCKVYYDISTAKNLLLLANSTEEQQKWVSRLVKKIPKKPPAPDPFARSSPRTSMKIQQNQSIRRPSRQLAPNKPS

CO[C@@H]1[C@H](N(C)C(=O)CSCC(=O)O)C[C@H]2O[C@]1(C)n1c3ccccc3c3c4c(c5c6ccccc6n2c5c31)C(=O)NC4=O [Compound 14]
IC50 (PIM-1 kinase; [1]): 53.8 nM

CO[C@@H]1[C@H](N(C)C(=O)c2cccs2)C[C@H]2O[C@]1(C)n1c3ccccc3c3c4c(c5c6ccccc6n2c5c31)C(=O)NC4=O [Compound 8]
IC50 (PIM-1 kinase; [1]): 52.4 nM

CO[C@@H]1[C@H](N(C)C(=O)c2ccc3c(c2)OCO3)C[C@H]2O[C@]1(C)n1c3ccccc3c3c4c(c5c6ccccc6n2c5c31)C(=O)NC4=O [Compound 9]
IC50 (PIM-1 kinase; [1]): > 1000 nM

CO[C@@H]1[C@H](N(C)C(=O)CCCCC(=O)O)C[C@H]2O[C@]1(C)n1c3ccccc3c3c4c(c5c6ccccc6n2c5c31)C(=O)NC4=O [Compound 15]
IC50 (PIM-1 kinase; [1]): 61.1 nM

CO[C@@H]1[C@H](N(C)C(=O)CCC(=O)Nc2cc[nH]n2)C[C@H]2O[C@]1(C)n1c3ccccc3c3c4c(c5c6ccccc6n2c5c31)C(=O)NC4=O [Compound 18]
IC50 (PIM-1 kinase; [1]): 32.4 nM

CO[C@@H]1[C@H](N(C)C(=O)/C=C/c2ccccc2)C[C@H]2O[C@]1(C)n1c3ccccc3c3c4c(c5c6ccccc6n2c5c31)C(=O)NC4=O [Compound 11]
IC50 (PIM-1 kinase; [1]): > 1000 nM

CO[C@@H]1[C@H](N(C)C(=O)CCCCCCC(=O)O)C[C@H]2O[C@]1(C)n1c3ccccc3c3c4c(c5c6ccccc6n2c5c31)C(=O)NC4=O [Compound 16]
IC50 (PIM-1 kinase; [1]): 65.9 nM

CCCCC(=O)N(C)[C@@H]1C[C@H]2O[C@@](C)([C@@H]1OC)n1c3ccccc3c3c4c(c5c6ccccc6n2c5c31)C(=O)NC4=O [Compound 3]
IC50 (PIM-1 kinase; [1]): > 1000 nM

CCCCCC(=O)N(C)[C@@H]1C[C@H]2O[C@@](C)([C@@H]1OC)n1c3ccccc3c3c4c(c5c6ccccc6n2c5c31)C(=O)NC4=O [Compound 4]
IC50 (PIM-1 kinase; [1]): > 1000 nM

CO[C@@H]1[C@H](N(C)C(=O)CCCC(=O)O)C[C@H]2O[C@]1(C)n1c3ccccc3c3c4c(c5c6ccccc6n2c5c31)C(=O)NC4=O [Compound 13]
IC50 (PIM-1 kinase; [1]): 39.1 nM

CCCC(=O)N(C)[C@@H]1C[C@H]2O[C@@](C)([C@@H]1OC)n1c3ccccc3c3c4c(c5c6ccccc6n2c5c31)C(=O)NC4=O [Compound 2]
IC50 (PIM-1 kinase; [1]): 83 nM

CN[C@@H]1C[C@H]2O[C@@](C)([C@@H]1OC)n1c3ccccc3c3c4c(c5c6ccccc6n2c5c31)C(=O)NC4=O [Compound 7OSTA, 7-carbonylstaurosporine]
IC50 (IKKβ): > 1000 nM | IC50 (PIM-1 kinase): 5.4 nM | IC50 (FLT3): 15.3 nM | IC50 (PKCε): 2.3 nM | IC50 (PKCη): 2.1 nM | IC50 (PAK4): 37 nM | IC50 (TRKB): 2.4 nM | IC50 (TRKA): 0.4 nM | IC50 (PLK1): 308 nM | IC50 (PKCδ): 1.4 nM | IC50 (ROCK2): 35.9 nM

CO[C@@H]1[C@H](N(C)C(=O)CCC(=O)O)C[C@H]2O[C@]1(C)n1c3ccccc3c3c4c(c5c6ccccc6n2c5c31)C(=O)NC4=O [Compound 12]
IC50 (PIM-1 kinase; [1]): 42.9 nM

CO[C@@H]1[C@H](N(C)C(=O)C2CC2)C[C@H]2O[C@]1(C)n1c3ccccc3c3c4c(c5c6ccccc6n2c5c31)C(=O)NC4=O [Compound 7]
IC50 (PIM-1 kinase; [1]): 445 nM

CCCCCCC(=O)N(C)[C@@H]1C[C@H]2O[C@@](C)([C@@H]1OC)n1c3ccccc3c3c4c(c5c6ccccc6n2c5c31)C(=O)NC4=O [Compound 5]
IC50 (PIM-1 kinase; [1]): > 1000 nM

CC(C)(O)[C@H]1CC[C@H](Nc2ccc3ncc(-c4cccc(C(F)(F)F)c4)n3n2)CC1 [TP-3654, reference compound]
IC50 (PIM-1 kinase; [1]): 31.1 nM

CCCCCCCC(=O)N(C)[C@@H]1C[C@H]2O[C@@](C)([C@@H]1OC)n1c3ccccc3c3c4c(c5c6ccccc6n2c5c31)C(=O)NC4=O [Compound 6]
IC50 (PIM-1 kinase; [1]): > 1000 nM

CO[C@@H]1[C@H](N(C)C(=O)C=C(C)C)C[C@H]2O[C@]1(C)n1c3ccccc3c3c4c(c5c6ccccc6n2c5c31)C(=O)NC4=O [Compound 10]
IC50 (PIM-1 kinase; [1]): 81.4 nM

CCC(=O)N(C)[C@@H]1C[C@H]2O[C@@](C)([C@@H]1OC)n1c3ccccc3c3c4c(c5c6ccccc6n2c5c31)C(=O)NC4=O [Compound 1]
IC50 (PIM-1 kinase; [1]): 41 nM
